Measured values: PMC9299836 (eLife, 2022)
Where “and” joins values, the source holds several entries; their conditions need not be identical. Equal values may be shown once.

What was measured:
mGluR2 [1] = molecular target: mGluR2 (Mus musculus, UniProt Q14BI2, A548F); test: Live-cell FRET, azi-CRD (cysteine-rich domain) sensor in HEK293T cells; details: for Normalized FRET response, Mean (azi-CRD agonist DRC): maximal responses normalized to 1mM glutamate
mGluR2 [2] = molecular target: T1, mGluR2 (Mus musculus, UniProt Q14BI2); test: Live-cell FRET, SNAP-m2 (VFT domain) inter-subunit sensor in HEK293T cells; details: for Normalized FRET response, Mean (SNAP-m2 agonist DRC): maximal responses normalized to 1mM glutamate;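 for all read-outs here: apparent FRET efficiency from whole-membrane ROIs of single cells, corrected for donor bleed-through and background, ΔFRET as treatment minus pretreatment signal, recorded at room temperature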
mGluR2 [3] = molecular target: mGluR2 (Mus musculus, UniProt Q14BI2, INS715F); test: Live-cell FRET, azi-ECL2 (7TM domain, extracellular loop 2) sensor in HEK293T cells;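 note: Cy3/Cy5 click-labeled sensor, whole-membrane ROIs per cell, apparent FRET after bleed-through correction, ΔFRET as treatment minus pre-treatment signal, at room temperature, at least three biological replicates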
mGluR2 [4] = molecular target: T1, mGluR2; test: Functional calcium imaging, SNAP-mGluR2 (no FLAG-tag) with chimeric G protein Gqo5 in HEK293T cells; format: cell-based; design: Full length mGluR2 construct with an amber codon (TAG) mutation of amino acid A548 (azi-CRD) or N-terminal SNAP-tag (SNAP-mGluR2); host or cells: HEK293T; details: for Intracellular Ca2+ response, Mean / Intracellular Ca2+ response: normalized to 1mM glutamate; for Intracellular Ca2+ response: single experiments

mGluR2 (Mus musculus, UniProt Q14BI2, INS715F), sequence (Q14BI2 with tags, fused parts or gaps INS715F): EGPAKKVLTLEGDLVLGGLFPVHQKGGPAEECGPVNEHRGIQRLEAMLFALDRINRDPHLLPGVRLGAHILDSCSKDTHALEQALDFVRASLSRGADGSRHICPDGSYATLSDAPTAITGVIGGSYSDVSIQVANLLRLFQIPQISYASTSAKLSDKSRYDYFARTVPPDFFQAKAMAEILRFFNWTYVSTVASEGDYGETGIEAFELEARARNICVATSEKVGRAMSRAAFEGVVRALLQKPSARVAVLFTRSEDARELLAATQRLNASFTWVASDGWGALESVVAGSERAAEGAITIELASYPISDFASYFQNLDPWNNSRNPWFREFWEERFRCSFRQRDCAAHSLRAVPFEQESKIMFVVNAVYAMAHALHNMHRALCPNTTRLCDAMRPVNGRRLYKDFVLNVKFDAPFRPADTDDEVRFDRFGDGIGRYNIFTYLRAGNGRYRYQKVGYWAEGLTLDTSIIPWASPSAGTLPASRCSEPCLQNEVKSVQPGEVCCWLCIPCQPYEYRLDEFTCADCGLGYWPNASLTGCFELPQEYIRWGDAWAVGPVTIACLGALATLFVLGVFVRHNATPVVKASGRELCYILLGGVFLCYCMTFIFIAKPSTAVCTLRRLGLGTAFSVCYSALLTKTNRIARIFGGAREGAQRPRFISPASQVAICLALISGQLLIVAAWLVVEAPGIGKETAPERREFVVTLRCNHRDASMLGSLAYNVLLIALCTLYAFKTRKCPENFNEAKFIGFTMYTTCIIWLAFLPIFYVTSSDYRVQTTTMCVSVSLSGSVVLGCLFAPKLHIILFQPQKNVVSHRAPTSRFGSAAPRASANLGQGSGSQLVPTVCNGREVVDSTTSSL
T1 sequence (Q14BI2 19-872): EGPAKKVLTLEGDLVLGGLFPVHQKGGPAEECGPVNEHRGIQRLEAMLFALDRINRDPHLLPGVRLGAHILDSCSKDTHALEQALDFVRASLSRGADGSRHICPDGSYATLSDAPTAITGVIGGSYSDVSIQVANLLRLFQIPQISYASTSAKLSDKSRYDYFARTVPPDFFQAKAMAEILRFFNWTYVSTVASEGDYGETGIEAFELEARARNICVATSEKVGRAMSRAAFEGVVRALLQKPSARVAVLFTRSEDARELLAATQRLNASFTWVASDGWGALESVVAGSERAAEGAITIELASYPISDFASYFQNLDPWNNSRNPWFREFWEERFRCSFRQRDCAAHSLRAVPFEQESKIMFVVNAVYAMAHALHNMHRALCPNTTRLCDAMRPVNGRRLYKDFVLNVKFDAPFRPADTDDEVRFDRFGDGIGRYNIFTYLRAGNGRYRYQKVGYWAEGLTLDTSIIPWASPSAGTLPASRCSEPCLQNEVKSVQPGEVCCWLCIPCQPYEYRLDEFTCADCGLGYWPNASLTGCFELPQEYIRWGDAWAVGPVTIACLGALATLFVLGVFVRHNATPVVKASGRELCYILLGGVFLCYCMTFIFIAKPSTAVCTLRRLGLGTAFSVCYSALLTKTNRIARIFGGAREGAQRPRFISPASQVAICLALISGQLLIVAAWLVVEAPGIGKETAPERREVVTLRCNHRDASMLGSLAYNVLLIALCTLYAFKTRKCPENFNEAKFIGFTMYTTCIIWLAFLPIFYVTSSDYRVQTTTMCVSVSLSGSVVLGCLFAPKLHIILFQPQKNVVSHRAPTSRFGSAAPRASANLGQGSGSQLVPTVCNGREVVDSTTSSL
mGluR2 (Mus musculus, UniProt Q14BI2, A548F), sequence (Q14BI2 19-872 A548F): as the sequence (Q14BI2 19-872) above, with A530F counted along it

EC50 (mGluR2 [1]; Live-cell FRET titration EC50, azi-CRD, agonist alone, individual experiments): 12.7 nM and 14.3 nM and 9.97 nM and 8.96 nM and 10.9 nM and 13.4 nM and 14.5 nM and 16 nM and 14.4 nM and 12.2 nM and 11.3 nM and 13.2 nM and 11.7 nM and 11.4 nM and 10.4 nM and 14.2 nM and 9.03 nM and 7.75 nM
EC50 (mGluR2 [1]; Mean half-maximum effective concentration (EC50), azi-CRD sensor, orthosteric agonist alone, nM for LY379268 (footnote)): 12.1 nM
Hill slope (mGluR2 [1]; azi-CRD sensor, orthosteric agonist alone): 1.36
Mean max response (normalized max ΔFRET) (mGluR2 [1]; azi-CRD, agonist alone (1 mM glutamate, 100 μM DCG-IV, 20 μM LY379268, 100 μM APDC), normalized to 1 mM glutamate): 1.06
Normalized Max ΔFRET, Mean (mGluR2 [1]; azi-CRD, 20μM agonist, mean of cells, normalized to 1mM glutamate): 106.212
Normalized FRET response, Mean (azi-CRD agonist DRC) (mGluR2 [1]; log[ligand] (M) -4.69897): 1.062
Normalized FRET response, Mean (azi-CRD agonist DRC) (mGluR2 [1]; log[ligand] (M) -6): 1.058
Normalized FRET response, Mean (azi-CRD agonist DRC) (mGluR2 [1]; log[ligand] (M) -7.1549): 0.9652
Normalized FRET response, Mean (azi-CRD agonist DRC) (mGluR2 [1]; log[ligand] (M) -7.52288): 0.8398
Normalized FRET response, Mean (azi-CRD agonist DRC) (mGluR2 [1]; log[ligand] (M) -8): 0.4669
Normalized FRET response, Mean (azi-CRD agonist DRC) (mGluR2 [1]; log[ligand] (M) -8.39794): 0.1943
Normalized FRET response, Mean (azi-CRD agonist DRC) (mGluR2 [1]; log[ligand] (M) -8.82391): 0.06461
Normalized FRET response, Mean (azi-CRD agonist DRC) (mGluR2 [1]; log[ligand] (M) -9.52288): 0.04231
Normalized FRET response, Mean (azi-CRD agonist DRC) (mGluR2 [1]; log[ligand] (M) -10): 0
Emax (mGluR2 [2]; HEK-293T, read-out: Normalized Max ΔFRET, SNAP-m2, 20μM agonist, individual cells, normalized to 1mM glutamate): 101%
EC50 (mGluR2 [2]; Mean half-maximum effective concentration (EC50), SNAP-m2 sensor, orthosteric agonist alone, nM for LY379268 (footnote)): 30.6 nM
Mean max response (normalized max ΔFRET) (mGluR2 [2]; SNAP-m2 (VFT), agonist alone (1 mM glutamate, 100 μM DCG-IV, 20 μM LY379268, 100 μM APDC), normalized to 1 mM glutamate): 1.01
Normalized Max ΔFRET, Mean (mGluR2 [2]; SNAP-m2, 20μM agonist, mean of cells, normalized to 1mM glutamate): 101.061
Hill slope (mGluR2 [2]; SNAP-m2 sensor, orthosteric agonist alone): –1.12
Normalized FRET response, Mean (SNAP-m2 agonist DRC) (mGluR2 [2]; log[ligand] (M) -6): -1.011
Normalized FRET response, Mean (SNAP-m2 agonist DRC) (mGluR2 [2]; log[ligand] (M) -6.69897): -1.017
Normalized FRET response, Mean (SNAP-m2 agonist DRC) (mGluR2 [2]; log[ligand] (M) -7.1549): -0.7975
Normalized FRET response, Mean (SNAP-m2 agonist DRC) (mGluR2 [2]; log[ligand] (M) -7.52288): -0.6707
Normalized FRET response, Mean (SNAP-m2 agonist DRC) (mGluR2 [2]; log[ligand] (M) -8): -0.3677
Normalized FRET response, Mean (SNAP-m2 agonist DRC) (mGluR2 [2]; log[ligand] (M) -8.39794): -0.1637
Normalized FRET response, Mean (SNAP-m2 agonist DRC) (mGluR2 [2]; log[ligand] (M) -8.82391): -0.07424
Normalized FRET response, Mean (SNAP-m2 agonist DRC) (mGluR2 [2]; log[ligand] (M) -9.52288): -0.01697
Normalized FRET response, Mean (SNAP-m2 agonist DRC) (mGluR2 [2]; log[ligand] (M) -10): -0.0059
Normalized FRET response, Mean (SNAP-m2 agonist DRC) (mGluR2 [2]; log[ligand] (M) -10.699): 0
EC50 (mGluR2 [3]; EC50, live-cell FRET titration, azi-ECL2 sensor, LY379268, individual cell values (N=9)): 6.91 nM and 29 nM and 9.62 nM and 9.94 nM and 8.57 nM and 6.02 nM and 9.91 nM and 5.72 nM and 5.97 nM
EC50 (mGluR2 [3]; Mean half-maximum effective concentration (EC50), azi-ECL2 sensor, orthosteric agonist alone, nM for LY379268 (footnote)): 10.2 nM
Mean max response (normalized max ΔFRET) (mGluR2 [3]; azi-ECL2, agonist alone (1 mM glutamate, 100 μM DCG-IV, 20 μM LY379268, 100 μM APDC), normalized to 1 mM glutamate): 1.14
Normalized ΔFRET response, Mean (agonist DRC) (mGluR2 [3]; azi-ECL2, log[agonist] (M) -4.69897, normalized to 1 mM glutamate): 1.14
Normalized ΔFRET response, Mean (agonist DRC) (mGluR2 [3]; azi-ECL2, log[agonist] (M) -6, normalized to 1 mM glutamate): 1.108
Normalized ΔFRET response, Mean (agonist DRC) (mGluR2 [3]; azi-ECL2, log[agonist] (M) -7.1549, normalized to 1 mM glutamate): 1.024
Normalized ΔFRET response, Mean (agonist DRC) (mGluR2 [3]; azi-ECL2, log[agonist] (M) -7.52288, normalized to 1 mM glutamate): 0.9098
Normalized ΔFRET response, Mean (agonist DRC) (mGluR2 [3]; azi-ECL2, log[agonist] (M) -8, normalized to 1 mM glutamate): 0.6174
Normalized ΔFRET response, Mean (agonist DRC) (mGluR2 [3]; azi-ECL2, log[agonist] (M) -8.39794, normalized to 1 mM glutamate): 0.327
Normalized ΔFRET response, Mean (agonist DRC) (mGluR2 [3]; azi-ECL2, log[agonist] (M) -8.82391, normalized to 1 mM glutamate): 0.1901
Normalized ΔFRET response, Mean (agonist DRC) (mGluR2 [3]; azi-ECL2, log[agonist] (M) -9.52288, normalized to 1 mM glutamate): 0.0544
Normalized ΔFRET response, Mean (agonist DRC) (mGluR2 [3]; azi-ECL2, log[agonist] (M) -10, normalized to 1 mM glutamate): 0
Normalized ΔFRET response, Mean (agonist DRC) (mGluR2 [3]; azi-ECL2, log[agonist] (M) -10.699, normalized to 1 mM glutamate): 0
Normalized Max ΔFRET, Mean (mGluR2 [3]; azi-ECL2, 20μM agonist, mean of cells, normalized to 1mM glutamate): 114.025
Hill slope (mGluR2 [3]; azi-ECL2 sensor, orthosteric agonist alone): 1.03
Normalized Max Intracellular Ca2+ Response, individual experiments (mGluR2 [4]; 100 μM DCG-IV, 10 μM LY379268, 300 μM APDC, normalized to 1 mM glutamate, single replicate): 1.134 and 1.073 and 0.9696
Normalized Max Intracellular Ca2+ Response, mean (mGluR2 [4]; 1 mM Glu, 100 μM DCG-IV, 10 μM LY379268, 300 μM APDC, normalized to 1 mM glutamate): 1.059
Intracellular Ca2+ response, Mean (mGluR2 [4]; log[agonist] (M) -5): 1.059
Intracellular Ca2+ response (mGluR2 [4]; log[agonist] (M) -5): 1.059
Intracellular Ca2+ response, Mean (mGluR2 [4]; log[agonist] (M) -5.30103): 1.029
Intracellular Ca2+ response (mGluR2 [4]; log[agonist] (M) -5.30103): 1.067 and 1.001 and 1.018
Intracellular Ca2+ response, Mean (mGluR2 [4]; log[agonist] (M) -5.69897): 1.028
Intracellular Ca2+ response (mGluR2 [4]; log[agonist] (M) -5.69897): 0.9461 and 1.043 and 1.094
Intracellular Ca2+ response, Mean (mGluR2 [4]; log[agonist] (M) -6): 1.014
Intracellular Ca2+ response (mGluR2 [4]; log[agonist] (M) -6): 0.8943 and 1.055 and 1.093
Intracellular Ca2+ response, Mean (mGluR2 [4]; log[agonist] (M) -6.60206): 0.8831
Intracellular Ca2+ response (mGluR2 [4]; log[agonist] (M) -6.60206): 0.7751 and 0.9366 and 0.9375
Intracellular Ca2+ response, Mean (mGluR2 [4]; log[agonist] (M) -7.1549): 0.4554
Intracellular Ca2+ response (mGluR2 [4]; log[agonist] (M) -7.1549): 0.4206 and 0.5128 and 0.4328
Intracellular Ca2+ response, Mean (mGluR2 [4]; log[agonist] (M) -7.52288): 0.1775
Intracellular Ca2+ response (mGluR2 [4]; log[agonist] (M) -7.52288): 0.2096 and 0.1787 and 0.1441
Intracellular Ca2+ response, Mean (mGluR2 [4]; log[agonist] (M) -8): 0.00736
Intracellular Ca2+ response, Mean (mGluR2 [4]; log[agonist] (M) -8.39794): 0
Intracellular Ca2+ response (mGluR2 [4]; log[agonist] (M) -8.39794): 0
Intracellular Ca2+ response, Mean (mGluR2 [4]; log[agonist] (M) -8.82391): 0
Intracellular Ca2+ response (mGluR2 [4]; log[agonist] (M) -8.82391): 0
Intracellular Ca2+ response, Mean (mGluR2 [4]; log[agonist] (M) -9.52288): 0
Intracellular Ca2+ response (mGluR2 [4]; log[agonist] (M) -9.52288): 0
Intracellular Ca2+ response, Mean (mGluR2 [4]; log[agonist] (M) -10): 0
Intracellular Ca2+ response (mGluR2 [4]; log[agonist] (M) -10): 0
EC50 (mGluR2 [4]; one value per experiment, read-out: EC50, intracellular Ca2+ response): 84.9 nM and 98.9 nM and 71 nM
SMILES: N[C@@]1(C(=O)O)CO[C@H]2[C@H](C(=O)O)[C@H]21 [LY379268]
Live-cell FRET max response normalized to 1mM glutamate (mGluR2 [1]; azi-CRD sensor, LY379268, individual values (N=25)): 1.396 and 1.075 and 1.11 and 1.161 and 1.042 (2×) and 1.039 and 1.015 and 1.054 and 0.99 and 1.034 and 0.9879 and 0.9896 and 1.016 and 1.007 and 1.046 and 1.009 (2×) and 0.9955 and 1.0569 and 1.003 and 0.9915 and 1.157 and 1.205 and 1.123
Live-cell FRET max response normalized to 1mM glutamate (mGluR2 [2]; SNAP-m2 sensor, LY379268, individual values (N=23)): 0.9967 and 0.9702 and 0.9948 and 1.036 and 0.962 and 0.9651 and 1.05 (3×) and 1.035 and 1.049 and 1.015 and 0.9906 and 1.057 and 1.051 and 0.9532 and 0.9752 and 0.9335 and 1.106 and 1.013 and 0.9759 and 0.9961 and 1.019
Live-cell FRET max response normalized to 1mM glutamate (mGluR2 [3]; azi-ECL2 sensor, LY379268, individual values (N=22)): 0.9523 and 0.965 and 0.9976 and 1.05 and 1.063 and 1.017 and 1.16 and 1.1 and 1.538 and 1.083 and 1.3913 and 1.033 and 1.4421 and 1.297 and 1.208 and 1.454 and 1.223 and 1.042 and 0.9949 and 1.12 and 0.9608 and 0.9946
